Each structure is given as a SMILES string. “And” between values parts separate entries of the source, which are not always exact repeats. Identical values can stand only once. Toxic doses and inconclusive results are not listed.

The experiment deals with P388 leukemia ip, CD2F1 mice, survival T/C. The experiment is described as follows: NCI In Vivo Anticancer Drug Screen. Data for tumor model P388 Leukemia (intraperitoneal) in CD2F1 (CDF1) mice. The settings on record: endpoint: median survival time, higher = longer survival. Put shortly: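 Mice carrying the transplanted tumor received test compound or vehicle. Survival was recorded in each group, and the value is the treated-group measurement divided by that of the vehicle-treated control group.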

[1] abbreviates: dose: 50.0 mg/kg/injection, schedule: Q01DX009 (ip), vehicle: saline.
Setting [2] is: dose: 100.0 mg/kg/injection, schedule: Q01DX009 (ip), vehicle: saline.
Where [3] appears, read: dose: 200.0 mg/kg/injection, schedule: Q01DX009 (ip), vehicle: saline.
Setting [4] is: dose: 400.0 mg/kg/injection, schedule: Q01DX009 (ip), vehicle: saline.
[5] abbreviates: dose: 50.0 mg/kg/injection, schedule: Q01DX005 (ip), vehicle: saline with Tween-80.
Setting [6] is: dose: 100.0 mg/kg/injection, schedule: Q01DX005 (ip), vehicle: saline with Tween-80.
Setting [7] is: dose: 50.0 mg/kg/injection, schedule: Q01DX005 (ip), vehicle: Klucel (hydroxypropylcellulose) (HPC).
Setting [8] is: dose: 100.0 mg/kg/injection, schedule: Q01DX005 (ip), vehicle: Klucel (hydroxypropylcellulose) (HPC).
Setting [9] is: dose: 200.0 mg/kg/injection, schedule: Q01DX005 (ip), vehicle: Klucel (hydroxypropylcellulose) (HPC).
The mark [10] stands for this setting: dose: 60.0 mg/kg/injection, schedule: Q01DX005 (ip), vehicle: Klucel (hydroxypropylcellulose) (HPC).
Setting [11] is: dose: 120.0 mg/kg/injection, schedule: Q01DX005 (ip), vehicle: Klucel (hydroxypropylcellulose) (HPC).
[12] abbreviates: dose: 240.0 mg/kg/injection, schedule: Q01DX005 (ip), vehicle: Klucel (hydroxypropylcellulose) (HPC).
Where [13] appears, read: dose: 25.0 mg/kg/injection, schedule: Q01DX009 (ip), vehicle: saline with Tween-80.
The mark [14] stands for this setting: dose: 50.0 mg/kg/injection, schedule: Q01DX009 (ip), vehicle: saline with Tween-80.

For `CCCCCN(C)C12CN3CN(CN(C3)C1)C2`, the T/C under setting [1] is 103 % of control, the T/C under setting [2] was 103 % of control and the T/C under setting [3] was 99 % of control.

In the case of `CCCC(C(=O)OC(C)CN1C(C)CCC1C)C1CCCC1` (stereo unspecified), the T/C was 112 % of control under setting [2], 103 % of control under setting [3] and 108 % of control under setting [4].

As for `C#CCOC(=O)Nc1nc2ccc([N+](=O)[O-])cc2s1`, the T/C by setting is: (dose: 50.0 mg/kg/injection, schedule: Q01DX009 (ip), vehicle: Klucel (hydroxypropylcellulose) (HPC)) 101 % of control; (dose: 100.0 mg/kg/injection, schedule: Q01DX009 (ip), vehicle: Klucel (hydroxypropylcellulose) (HPC)) 99 % of control; (dose: 200.0 mg/kg/injection, schedule: Q01DX009 (ip), vehicle: Klucel (hydroxypropylcellulose) (HPC)) 92 % of control.

Consider `O=C(O)C1CCC[N-]C1.O=C(O)C1CCC[N-]C1.[Cl][Pt+2][Cl]` (stereo unspecified), for which the T/C is 100 % of control (dose: 5.0 mg/kg/injection, schedule: Q01DX009 (ip), vehicle: saline with Tween-80); 104 % of control (dose: 10.0 mg/kg/injection, schedule: Q01DX009 (ip), vehicle: saline with Tween-80); 109 % of control (dose: 20.0 mg/kg/injection, schedule: Q01DX009 (ip), vehicle: saline with Tween-80).

On to `CNC(=O)OCC1=C(Sc2ccccc2)C(=O)C(OC)=C(OC)C1=O`, for which the T/C is 106 % of control (dose: 12.5 mg/kg/injection, schedule: Q01DX005 (ip), vehicle: saline with Tween-80); 108 % of control (dose: 25.0 mg/kg/injection, schedule: Q01DX005 (ip), vehicle: saline with Tween-80); 103 % of control and 110 % of control under setting [5].

On to `COC(=O)c1cc(=O)n(-c2ccccc2)c(SC)n1`, for which the T/C (dose: 6.25 mg/kg/injection, schedule: Q04DX002 (ip), vehicle: Klucel (hydroxypropylcellulose) (HPC)) is 106 % of control; the T/C (dose: 12.5 mg/kg/injection, schedule: Q04DX002 (ip), vehicle: Klucel (hydroxypropylcellulose) (HPC)) was 96 % of control; the T/C (dose: 25.0 mg/kg/injection, schedule: Q04DX002 (ip), vehicle: Klucel (hydroxypropylcellulose) (HPC)) is 98 % of control; the T/C (dose: 50.0 mg/kg/injection, schedule: Q04DX002 (ip), vehicle: Klucel (hydroxypropylcellulose) (HPC)) was 104 % of control; the T/C (dose: 100.0 mg/kg/injection, schedule: Q04DX002 (ip), vehicle: Klucel (hydroxypropylcellulose) (HPC)) is 100 % of control and 98 % of control.

`CCNC1CC(C)(O)Cc2cc3c(c(O)c21)C(=O)c1c(O)cc2c(c1C3=O)OC1OC2(C)C(O)C(N(C)C)C1O` (stereo unspecified): the T/C is, setting by setting: (dose: 6.25 mg/kg/injection, schedule: Q01DX009 (ip), vehicle: other) 123 % of control; (dose: 25.0 mg/kg/injection, schedule: Q01DX009 (ip), vehicle: other) 154 % of control; (dose: 50.0 mg/kg/injection, schedule: Q01DX009 (ip), vehicle: other) 120 % of control.

With `CCCCCC(C)(Cl)CCCCC`, the T/C runs as follows: under setting [2], 101 % of control; under setting [3], 106 % of control; under setting [4], 106 % of control.

Turning to `NCC(=O)CN.[Cl-].[Cl-].[Pt+2]`, the T/C (dose: 25.0 mg/kg/injection, schedule: Q04DX003 (ip), vehicle: other) is 121 % of control; the T/C (dose: 200.0 mg/kg/injection, schedule: Q04DX003 (ip), vehicle: other) was 158 % of control; the T/C (dose: 400.0 mg/kg/injection, schedule: Q04DX003 (ip), vehicle: other) is 177 % of control.

Turning to `CN(C)CCC(=O)C(=Cc1ccco1)C(=O)CCN(C)C`, the T/C is 100 % of control (dose: 60.0 mg/kg/injection, schedule: Q01DX005 (ip), vehicle: saline); 104 % of control (dose: 120.0 mg/kg/injection, schedule: Q01DX005 (ip), vehicle: saline); 109 % of control (dose: 240.0 mg/kg/injection, schedule: Q01DX005 (ip), vehicle: saline).

With `CC(C)=CCc1cc2c(cc1O)OC[C@H]1c3cc4c(cc3O[C@@H]21)OCO4`, the T/C by setting is: (dose: 100.0 mg/kg/injection, schedule: Q01DX001 (ip), vehicle: Klucel (hydroxypropylcellulose) (HPC)) 91 % of control; (dose: 200.0 mg/kg/injection, schedule: Q01DX001 (ip), vehicle: Klucel (hydroxypropylcellulose) (HPC)) 96 % of control; (dose: 400.0 mg/kg/injection, schedule: Q01DX001 (ip), vehicle: Klucel (hydroxypropylcellulose) (HPC)) 91 % of control.

As to `CCC1(O)CC(c2ccccc2)N(C)C(c2ccccc2)C1` (stereo unspecified), the T/C reads like this: under setting [5], 99 % of control; under setting [6], 95 % of control.

For `COc1ccc(C(=O)C(c2ccc(OC)c(OC)c2O)C(OC)OC)c(O)c1` (stereo unspecified), the T/C (dose: 75.0 mg/kg/injection, schedule: Q04DX003 (ip), vehicle: Klucel (hydroxypropylcellulose) (HPC)) was 100 % of control; the T/C (dose: 150.0 mg/kg/injection, schedule: Q04DX003 (ip), vehicle: Klucel (hydroxypropylcellulose) (HPC)) is 98 % of control; the T/C (dose: 300.0 mg/kg/injection, schedule: Q04DX003 (ip), vehicle: Klucel (hydroxypropylcellulose) (HPC)) was 98 % of control.

As to `Clc1ccc(/C=N/Nc2nnc3c(n2)[nH]c2ccccc23)cc1`, the T/C is, setting by setting: (dose: 100.0 mg/kg/injection, schedule: Q04DX002 (ip), vehicle: saline with Tween-80) 99 % of control; (dose: 200.0 mg/kg/injection, schedule: Q04DX002 (ip), vehicle: saline with Tween-80) 100 % of control; (dose: 400.0 mg/kg/injection, schedule: Q04DX002 (ip), vehicle: saline with Tween-80) 90 % of control.

For the compound `COc1ccccc1/C=C(\C(=O)O)c1ccccc1`, the T/C runs as follows: under setting [7], 96 % of control; under setting [8], 91 % of control.

With `CC(NC(=O)C(Cl)Cl)C(=O)O` (stereo unspecified), the T/C was 96 % of control under setting [7], 99 % of control under setting [8] and 96 % of control under setting [9].

As for `Cc1onc(-c2ccccc2)c1C(=O)N/N=C/c1cc(Cl)cc(Cl)c1O`, the T/C reads like this: under setting [1], 103 % of control; under setting [2], 91 % of control; under setting [3], 99 % of control.

For the compound `c1ccc(N=c2nc(Nc3ccccc3)ss2)cc1`, the T/C by setting is: under setting [5], 94 % of control; under setting [6], 86 % of control; (dose: 200.0 mg/kg/injection, schedule: Q01DX005 (ip), vehicle: saline with Tween-80) 90 % of control.

Consider `CC1(C)C(C(=O)/C=C2\Nc3ccccc3C2(C)C)=Nc2ccccc21`, for which the T/C is, setting by setting: under setting [10], 102 % of control; under setting [11], 91 % of control; under setting [12], 98 % of control.

For `O=[N+]([O-])c1ccc(-c2nc(/C=N/N3CCS(=O)(=O)CC3)cs2)o1`, the T/C is, setting by setting: under setting [13], 99 % of control; under setting [14], 99 % of control; (dose: 100.0 mg/kg/injection, schedule: Q01DX009 (ip), vehicle: saline with Tween-80) 100 % of control.

As to `COc1ccc(CSc2ncnc3nc[nH]c23)cc1`, the T/C is 91 % of control under setting [13] and 87 % of control under setting [14].

As for `COc1nc2ccccc2c2ccnn12`, the T/C (dose: 4.0 mg/kg/injection, schedule: Q01DX009 (ip), vehicle: saline with Tween-80) is 106 % of control; the T/C (dose: 8.0 mg/kg/injection, schedule: Q01DX009 (ip), vehicle: saline with Tween-80) was 106 % of control; the T/C (dose: 16.0 mg/kg/injection, schedule: Q01DX009 (ip), vehicle: saline with Tween-80) is 109 % of control.

In the case of `CCCCCCC[CH2][Sn]([CH2]C)([CH2]C)[O]C(C)=O`, the T/C (dose: 0.25 mg/kg/injection, schedule: Q01DX009 (ip), vehicle: saline with Tween-80) was 122 % of control.

On to `CCNCC1COc2cccc(OCC)c2O1` (stereo unspecified), for which the T/C was 104 % of control (dose: 25.0 mg/kg/injection, schedule: Q04DX002 (ip), vehicle: saline); 101 % of control (dose: 50.0 mg/kg/injection, schedule: Q04DX002 (ip), vehicle: saline); 99 % of control and 108 % of control (dose: 100.0 mg/kg/injection, schedule: Q04DX002 (ip), vehicle: saline).

In the case of `COc1ccc2c(C)cc(N/N=C/c3ccc([N+](=O)[O-])o3)nc2c1`, the T/C runs as follows: under setting [7], 100 % of control; under setting [8], 101 % of control; under setting [9], 90 % of control.

Consider `Cc1cccc(Nc2c(C(=O)O)cnc3cc4c(cc23)OCO4)c1C`, for which the T/C was 94 % of control (dose: 30.0 mg/kg/injection, schedule: Q01DX005 (ip), vehicle: Klucel (hydroxypropylcellulose) (HPC)); 96 % of control under setting [10]; 99 % of control and 103 % of control under setting [11]; 111 % of control under setting [12].

The record behind these values is PubChem BioAssay AID330 (DTP/NCI, 2004).
